Here are results for 71 compounds from PubChem BioAssay AID179 (DTP/NCI, 2004).

Active and inactive are the calls of the source.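 Rule for the calls: active = compounds giving half or more protection of infected cells from virus-caused growth loss, again on retest; inactive = the rest.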

This assay has as its system CEM cells HIV-1 protection, formazan growth assay. Briefly: NCI AIDS Antiviral Assay. To be noted: for IC50: measured here: growth of uninfected CEM cells. The gist of the method:
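Protection of CEM cells against HIV-1 was scored from cell growth (soluble formazan) across five concentrations, with parallel uninfected cells. Lack of protection may reflect toxicity.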

Regarding `Cc1cn([C@H]2C[C@@H]3[C@@H](COC(C)(C[Se]c4ccccc4)N3O)O2)c(=O)[nH]c1=O` (some centres undefined), the EC50 was 50.1 µM and the IC50 is 162 µM. For `CC(=O)Nc1ccc(C(=O)N[C@@H]2C(=O)N3[C@@H]2SC(C)(C)[C@@H]3C(=O)O)cn1` the same measures were 56.2 µM and 75.9 µM. Take `c1cncc(C2N3CCCCC3[C@@H]3c4[nH]c5ccccc5c4CCN23)c1` (some centres undefined): the EC50 was over 97.7 µM and the IC50 is over 97.7 µM. On to `Nc1ncnc2c1ncn2C1CC(OCc2ccccc2[N+](=O)[O-])C(CO)O1` (centres undefined), for which the EC50 was over 50.1 µM and the IC50 came out at 36.3 µM.

Take `N#C[C@@H](c1nc2ccccc2s1)c1ncccc1[N+](=O)[O-]`: the EC50 is over 200 µM and the IC50 is 20 µM. For `NNC(=O)CCC(NS(=O)(=O)c1ccc(Cl)cc1)C(=O)NN` (centres undefined) the same measures were over 200 µM and 145 µM.

As for `CCO/C=C(/C#N)C(=O)OC`, the result was inactive. For the compound `CC(=O)Oc1ccn2nc(C)c(Br)c2c1`, the EC50 was over 200 µM and the IC50 turned out to be 93.3 µM. For `O=c1[nH]cnc2c1ncn2Cc1ccccc1CCO` the same measures were over 93.3 µM and over 93.3 µM. On to `CCCCCCCCCCCCCCCCCC[N+](C)(C)Cc1ccc(C[N+](C)(C)CCCCCCCCCCCCCCCCCC)cc1`, for which the outcome was inactive. As for `OCC(O)C(O)C(O)c1nn(-c2ccccc2)c2nc3ccc(Cl)cc3nc12` (centres undefined), the EC50 was over 112 µM and the IC50 was over 112 µM. Take `CN[C@@H](C)[C@@H](NC)c1ccccc1`: the outcome was inactive.

For the compound `O=C1c2ccccc2Sc2ccccc2N1CCN1CCN(c2ccc(F)cc2)CC1`, the EC50 was over 200 µM and the IC50 was over 200 µM.

For `O=C(O)Cn1c(=O)[nH]c(=O)c2[nH]cnc21`, the EC50 was over 1200 µM and the IC50 was over 1200 µM. In the case of `CC(C)(C)C(=O)OC1CCOP(=O)(OCC2OC(n3cc(F)c(=O)[nH]c3=O)CC2O)O1` (centres undefined), the EC50 was over 200 µM and the 50% inhibitory concentration (IC50) came to 2.69 µM.

For `COC(=O)CC1(O)C(/C=C/c2ccccc2)C(C(=O)OC)C(=O)C(C(=O)OC)C1C(=O)OC` (centres undefined), the EC50 was over 50.1 µM and the IC50 came out at 37.2 µM. For `COCCCC(=O)NC(c1ccccc1)(c1ccccc1)c1ccccc1` the same measures were over 200 µM and over 200 µM.

Take `[Cu+2].[O-]/C(=N\N=C/c1cccc(C(F)(F)F)c1)c1ccncc1.[O-]/C(=N\N=C\c1cccc(C(F)(F)F)c1)c1ccncc1`: the EC50 was over 100 µM and the IC50 came to 5.62 µM. For `CN=c1ccc2cc3ccc(NC)cc3oc-2c1` the same measures were over 200 µM and 37.2 µM. As for `N#C/C(=C/Sc1ccccc1)C(=O)O`, the outcome was inactive.

On to `O=C1OC(C2Cc3cc4c(cc3C2=O)CCC4)c2ccccc21` (centres undefined), for which the EC50 is over 200 µM and the IC50 was found to be 33.9 µM. For `Clc1nc2nc3ccccc3nc2nc1Cl`, the EC50 was over 100 µM and the IC50 was 77.6 µM. For `Cn1c(=O)nc2n(CCO)c(-c3ccccc3)c(-c3ccccc3)nc-2c1=O` the same measures were over 200 µM and over 200 µM. For `Cc1csc(NNC(N)=O)n1` the same measures were over 200 µM and over 200 µM. `COc1ccccc1CC1(O)OC(=O)c2ccccc21` (centres undefined): the EC50 was over 200 µM and the IC50 was over 200 µM. On to `O=c1c(O)c(-c2ccccc2)oc2ccccc12`, for which the EC50 was over 93.3 µM and the IC50 was 18.6 µM. For `c1ccc2[nH]c(CSc3nc4ccccc4s3)nc2c1` the same measures were over 200 µM and 120 µM.

In the case of `O=C(CN1C(=O)c2cccc3c(Br)ccc(c23)C1=O)c1ccc(F)cc1`, the EC50 is over 200 µM and the IC50 is 52.5 µM. For the compound `Cc1ccc2cc(N)c3ccc(C)nc3c2n1`, the EC50 was over 2 µM and the IC50 turned out to be 0.309 µM.

In the case of `Cc1cn(COCCN2C(=O)c3ccccc3C2=O)c(=O)[nH]c1=O`, the EC50 is over 200 µM and the IC50 is over 200 µM.

Consider `COc1cc(/C=C2/Cc3ccccc3C2=O)ccc1O`, for which the EC50 is over 107 µM and the IC50 turned out to be 55 µM. For `O=c1[nH]nc(Nc2ccc(Cl)cc2)c2nnn(-c3ccc([N+](=O)[O-])cc3)c12` the same measures were over 200 µM and 67.6 µM. In the case of `NC(C(=O)O)C(O)C(=O)O` (centres undefined), the result was inactive. For `COc1cc(C2c3cc4c(cc3OC(NN)C2C)OCO4)cc(OC)c1OC` (centres undefined), the EC50 was over 200 µM and the IC50 is 1 µM. For `Oc1ccc(/C=C/c2cc(O)cc3c2[C@@H](c2cc(O)cc(O)c2)C(c2ccc(O)cc2)O3)cc1` (some centres undefined) the same measures were over 31.6 µM and 16.6 µM. Regarding `COC(=O)/C=C/c1ccc2c(c1)CC1(C2)Cc2cc3c(cc2C1=O)CCC3` (centres undefined), the EC50 is over 100 µM and the IC50 is over 100 µM.

For the compound `O=C(Cc1nc2ccccc2[nH]1)N/N=C1\SCC(=O)N1c1ccc(Cl)cc1`, the EC50 is over 182 µM and the IC50 is over 182 µM. On to `CCOC(=O)c1cc(C2(OC)CCN(Cc3ccccc3)C2=O)c(-c2cc(C)no2)[nH]1` (centres undefined), for which the EC50 is over 200 µM and the IC50 was found to be 148 µM. For `N#Cc1nc(/C=C/c2ccccc2)oc1N` the same measures were over 501 µM and 112 µM.

With `Cc1cccc(NC(=O)C(=O)C(C(=O)c2ccccc2F)C2OC(=O)c3ccccc32)c1Cl` (centres undefined), the EC50 was over 204 µM and the IC50 came out at 12 µM.

As for `C=C1c2cc3c(cc2CC12Cc1cc4c(cc1C2=O)CCC4)CCC3` (centres undefined), the EC50 was over 200 µM and the IC50 is over 200 µM.

On to `c1cc2nnc1SCCSCCSCCSc1ccc(nn1)SCCSCCSCCS2`, for which the EC50 is over 200 µM and the IC50 is over 200 µM. With `NC(=O)c1c2c(cc3c(=O)c4ccccc4[nH]c13)CCCC2`, the result was inactive.

Consider `COc1ccc(CN2CC(=O)N3Cc4ccccc4CN3C(=O)C2)cc1`, for which the EC50 was over 200 µM and the IC50 is 166 µM. For `N#CC(NNC(=O)c1ccccc1O)c1ccccc1O` (centres undefined) the same measures were over 91.2 µM and 1.58 µM. For `O=C(/N=N/C(=O)Oc1ccccc1)Oc1ccccc1` the same measures were over 200 µM and 33.1 µM. Turning to `O=C(NNc1nc(-c2ccccc2)cs1)Nc1ccccc1`, the EC50 was over 200 µM and the IC50 worked out at 40.7 µM. For `O=C(CCCN1CCC(C(=O)c2ccc(F)cc2)CC1)c1ccc(F)cc1` the same measures were over 24.5 µM and over 24.5 µM. On to `O=C(NCCCCNCCCNC(=O)c1ccccc1)c1ccccc1`, for which the EC50 was over 200 µM and the IC50 was over 200 µM. As for `CC(C)OC(=O)[C@@H]1OC(C)(C)O[C@H]1C(=O)OC(C)C`, the EC50 is over 200 µM and the IC50 was over 200 µM.

As to `CC1=CCC[C@H]2[C@](C)(CC3=CC(=O)C(Sc4ccccc4)=CC3=O)[C@@H](C)CC[C@]12C`, the EC50 was over 200 µM and the IC50 was found to be 1.32 µM. For `COC1=C(OC)C(=O)C(C/C=C(\C)CC/C=C(\C)CC/C=C(\C)CC/C=C(\C)CC/C=C(\C)CC/C=C(\C)CC/C=C(\C)CC/C=C(\C)CC/C=C(\C)CCC=C(C)C)=C(C)C1=O` the same measures were over 110 µM and over 110 µM. In the case of `Cc1cc(NS(=O)(=O)c2ccc(NC(=O)c3cccc4c(=O)c5ccccc5[nH]c34)cc2)no1`, the outcome was inactive. On to `NC(N)=NS(=O)(=O)c1ccc(NNc2c3ccccc3nc3c(C(=O)Nc4ccc(S(=O)(=O)N=C(N)N)cc4)cccc23)cc1`, for which the EC50 was over 200 µM and the IC50 was 33.1 µM.

Consider `N#Cc1sc2nc(/C=C3/C=CC=CC3=O)c(O)n2c1N`, for which the EC50 is over 200 µM and the IC50 came out at 93.3 µM. For `CC(C)CCCC(C)C1CCC2C3CC[C@H]4C[C@H](NC(=O)C=C(c5cc(Cl)c(O)c(C(=O)O)c5)c5cc(Cl)c(O)c(C(=O)O)c5)CC[C@]4(C)C3CC[C@]12C` (some centres undefined) the same measures were over 100 µM and 26.3 µM. Take `Cc1cc(=O)oc2c1cc(OCC(=O)OCCN1CCCCC1)c1occ(C)c12`: the result was inactive. With `Cc1ccc(OCCn2cc(Nc3ccccc3)c(=O)n(CCOc3ccc(C)cc3)c2=O)cc1`, the EC50 was over 200 µM and the IC50 is 174 µM. As for `COC(=O)C(Cc1c(C2Nc3ccccc3C2CC(NC(=O)CNC(C)=O)C(=O)OC)[nH]c2ccccc12)NC(=O)CNC(C)=O` (centres undefined), the EC50 was over 200 µM and the IC50 is over 200 µM. `CC(C)c1cccc(C(C)C)c1NC(=O)C(=O)C(C(=O)c1ccc2ccccc2c1)C1OC(=O)c2ccccc21` (centres undefined): the EC50 was over 67.6 µM and the IC50 turned out to be 34.7 µM. For `CC(NNC(=S)N1CCCCCC1)c1cccnn1` (centres undefined) the same measures were over 200 µM and 0.355 µM. Regarding `CO/C(N)=C(\C#N)N=Cc1ccsc1`, the EC50 was over 200 µM and the IC50 was 126 µM. For `BrC1(c2ccccc2)C[n+]2c(-c3ccccc3)cc(-c3ccccc3)cc2-c2ccccc21` (centres undefined) the same measures were over 200 µM and 0.741 µM. For `NC1CCCC2CCC(N)C12` (centres undefined) the same measures were over 200 µM and 9.55 µM. For `Nc1ccnc(N)c1N=O` the same measures were over 200 µM and 27.5 µM.

On to `CC1(C)CC(=O)C(C=NC(=S)C(N)=S)=C(O)C1`, for which the EC50 was over 200 µM and the IC50 turned out to be 37.2 µM. For `Cc1ccc2c(c1)C(=O)/C(=N/Nc1ccc(Cl)cc1)CCO2` the same measures were over 200 µM and 110 µM.

Take `COC(=O)C(N)CSc1ccc([N+](=O)[O-])cc1[N+](=O)[O-]` (centres undefined): the EC50 was over 741 µM and the IC50 was 115 µM. Turning to `CC1=C(C(=O)Nc2cccc(Cl)c2)C(c2ccccc2O)C(C(=O)Nc2cccc(Cl)c2)=C(C)N1`, the EC50 was over 50.1 µM and the IC50 stood at 12 µM. For `O=C(/C=C/c1ccc(O)c([N+](=O)[O-])c1)CC(=O)/C=C/c1ccc(O)c([N+](=O)[O-])c1` the same measures were over 200 µM and 25.7 µM.

Take `CC(C)(C)OC(=O)NCCC(N)=S`: the EC50 was over 646 µM and the IC50 was found to be 174 µM.

The term EC50 denotes the concentration needed to bring the measured effect to its halfway point. For orientation: IC50 means the concentration at which inhibition is half-maximal. High values mean weaker potency in that assay, low ones greater potency in that assay.
